Results published in patent US20250282728A1, “NITROGEN COMPRISING HETEROCYCLIC DERIVATIVES FOR THE TREATMENT OF DISORDERS ASSOCIATED WITH GPR55 RECEPTOR” (Cerevance, Inc., priority 2022, published 2025).

Columns and labels:
rat GPR55 = target: T1, rat GPR55 (Rattus norvegicus, UniProt F1MAK4); assay: Ca2+ mobilization assay (FLIPR, Calcium5 dye), rat GPR55; assay type: cell-based; settings: HEK293 cells co-expressing PK-tagged rat GPR55 and EA-tagged beta-arrestin; intracellular calcium increase
T1 construct: expressed in transfected cells; host or cells: HEK293 (human embryonic kidney) cells
T1 sequence (F1MAK4 1-319): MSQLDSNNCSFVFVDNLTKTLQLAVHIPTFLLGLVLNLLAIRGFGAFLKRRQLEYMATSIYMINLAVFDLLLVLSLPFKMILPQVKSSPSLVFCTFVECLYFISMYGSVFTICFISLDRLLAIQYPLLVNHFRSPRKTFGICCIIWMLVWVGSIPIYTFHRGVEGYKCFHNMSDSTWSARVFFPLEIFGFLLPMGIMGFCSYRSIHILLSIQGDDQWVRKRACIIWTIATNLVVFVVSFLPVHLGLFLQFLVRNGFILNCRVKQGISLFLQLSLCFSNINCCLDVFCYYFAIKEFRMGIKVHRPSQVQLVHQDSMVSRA
Description: (§1) This cell-based assay measures the ability of compounds to activate the GPR55 receptor by measuring changes in intracellular calcium levels. HEK293 (human embryonic kidney) cells co-expressing recombinant ProLink (PK) tagged human or rat GPR55 and Enzyme Acceptor (EA) tagged beta-arrestin were seeded into PDL-coated, black-walled clear-bottom 384 well plates in assay buffer (25 mM HEPES, HBSS, 1 mM Probenicid, 0.1% BSA, pH 7.4) containing Calcium5 dye (Molecular Devices). Cells were incubated in suspension with the Calcium5 dye for 1 hour at 37° C., 5% CO2. Dilution series of the compounds in assay buffer were added to the cells in duplicate wells and compound-mediated real-time increases in intracellular calcium concentration were recorded as increased fluorescence using the Molecular Devices FLIPR instrument. Kinetic traces were reduced to a numerical value by subtracting the minimum response from the maximum response.

human GPR55 = target: T2, human GPR55 (Homo sapiens, UniProt Q9Y2T6); assay: Ca2+ mobilization assay (FLIPR, Calcium5 dye), human GPR55; assay type: cell-based; settings: HEK293 cells co-expressing PK-tagged human GPR55 and EA-tagged beta-arrestin; intracellular calcium increase
T2 construct: expressed in transfected cells; host or cells: HEK293 (human embryonic kidney) cells
T2 sequence (Q9Y2T6 whole entry): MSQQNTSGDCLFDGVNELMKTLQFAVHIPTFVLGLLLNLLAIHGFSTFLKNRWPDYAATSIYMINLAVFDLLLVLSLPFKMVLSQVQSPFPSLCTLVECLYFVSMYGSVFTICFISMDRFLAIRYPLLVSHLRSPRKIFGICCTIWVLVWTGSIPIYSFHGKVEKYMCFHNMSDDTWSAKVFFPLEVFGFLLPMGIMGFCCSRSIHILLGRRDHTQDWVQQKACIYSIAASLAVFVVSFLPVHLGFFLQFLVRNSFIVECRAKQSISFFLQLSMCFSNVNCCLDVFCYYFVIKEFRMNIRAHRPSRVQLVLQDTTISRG
Description: as §1

Row | SMILES | EC50 (rat GPR55) [nM] | EC50 (human GPR55) [nM]
1 | CC(Nc1ncc(-c2ccc3oc(=O)n(C)c3c2)nn1)c1ccc(Cl)c(Cl)c1 (single isomer, unassigned) [Example 78a, 5-(3-((1-(3,4-dichlorophenyl)ethyl)amino)-1,2,4-triazin-6-yl)-3-methylbenzo[d]oxazol-2(3H)-one] | ≤ 1000 | ≤ 1000
2 | CCc1cncc(-c2ccc(N[C@@H]3CCc4ccccc43)nc2)c1 [Example 21, (R)-N-(2,3-dihydro-1H-inden-1-yl)-5′-ethyl-[3,3′-bipyridin]-6-amine] | ≤ 5000 | ≤ 200
3 | C[C@@H](Nc1cnc(-c2cnnc(C(O)C(F)(F)F)c2)cn1)c1ccc(F)cc1 (stereo partly drawn) [Example 58, 2,2,2-trifluoro-1-(5-(5-(((R)-1-(4-fluorophenyl)ethyl)amino)pyrazin-2-yl)pyridazin-3-yl)ethan-1-ol] | ≤ 5000 | ≤ 50
4 | C[C@@H](Nc1ncc(-c2ccc3oc(=O)n(C)c3c2)nn1)c1ccc(Cl)cc1 [Example 73, (R)-5-(3-((1-(4-chlorophenyl)ethyl)amino)-1,2,4-triazin-6-yl)-3-methylbenzo[d]oxazol-2(3H)-one] | ≤ 5000 | ≤ 1000
5 | C[C@@H](Nc1ncc(-c2ccc3ocnc3c2)nn1)c1ccc(F)cc1 [Example 80, (R)-6-(benzo[d]oxazol-5-yl)-N-(1-(4-fluorophenyl)ethyl)-1,2,4-triazin-3-amine] | ≤ 1000 | ≤ 200
6 | C[C@@H](Nc1ncc(-c2ccc3oc(=O)n(CCO)c3c2)nn1)c1ccc(F)cc1 [Example 65, (R)-5-(3-((1-(4-fluorophenyl)ethyl)amino)-1,2,4-triazin-6-yl)-3-(2-hydroxyethyl)benzo[d]oxazol-2(3H)-one] | ≤ 5000 | ≤ 1000
7 | C[C@@H](Nc1ncc(-c2ccc3oc(=O)n(C)c3c2)cn1)c1ccc(F)cc1 [Example 63, (R)-5-(2-((1-(4-fluorophenyl)ethyl)amino)pyrimidin-5-yl)-3-methylbenzo[d]oxazol-2(3H)-one] | ≤ 1000 | ≤ 1000
8 | C[C@@H](Nc1ncc(-c2ccc3oc(=O)n(CCN(C)C)c3c2)nn1)c1ccc(F)cc1 [Example 71, (R)-3-(2-(dimethylamino)ethyl)-5-(3-((1-(4-fluorophenyl)ethyl)amino)-1,2,4-triazin-6-yl)benzo[d]oxazol-2(3H)-one] | ≤ 5000 | ≤ 1000
9 | C[C@@H](Nc1ncc(-c2ccc3oc(=O)n(C)c3c2)nn1)c1ccc(F)cc1F [Example 75, (R)-5-(3-((1-(2,4-difluorophenyl)ethyl)amino)-1,2,4-triazin-6-yl)-3-methylbenzo[d]oxazol-2(3H)-one] | ≤ 1000 | ≤ 1000
10 | Cc1cc(C(C)Nc2ncc(-c3ccc4oc(=O)n(C)c4c3)nn2)ccc1F (single isomer, unassigned) [Example 77a, 5-(3-((1-(4-fluoro-3-methylphenyl)ethyl)amino)-1,2,4-triazin-6-yl)-3-methylbenzo[d]oxazol-2(3H)-one] | ≤ 1000 | ≤ 1000
11 | C[C@@H](Nc1cnc(-c2cncc(C(O)C(F)(F)F)c2)cn1)c1ccc(F)cc1 (single isomer, unassigned) [Example 32a] | ≤ 50 | ≤ 50
12 | COCn1c(=O)oc2ccc(-c3cnc(N[C@H](C)c4ccc(F)cc4)nn3)cc21 [Example 66, (R)-5-(3-((1-(4-fluorophenyl)ethyl)amino)-1,2,4-triazin-6-yl)-3-(methoxymethyl)benzo[d]oxazol-2(3H)-one] | ≤ 1000 | ≤ 200
13 | C[C@@H](Nc1cnc(-c2cncc(CC(F)(F)F)c2)nn1)c1ccc(F)cc1 [Example 56, (R)-N-(1-(4-fluorophenyl)ethyl)-3-(5-(2,2,2-trifluoroethyl)pyridin-3-yl)-1,2,4-triazin-6-amine] | ≤ 5000 | ≤ 1000
14 | C[C@@H](Nc1ncc(-c2ccc3oc(=O)n(CS(C)(=O)=O)c3c2)nn1)c1ccc(F)cc1 [Example 72, (R)-5-(3-((1-(4-fluorophenyl)ethyl)amino)-1,2,4-triazin-6-yl)-3-((methylsulfonyl)methyl)benzo[d]oxazol-2(3H)-one] | ≤ 5000 | ≤ 1000
15 | CC(Nc1ncc(-c2ccc3oc(=O)n(C)c3c2)nn1)c1ccc(C#N)cc1 (stereo not drawn) [Example 74, 4-(1-((6-(3-methyl-2-oxo-2,3-dihydrobenzo[d]oxazol-5-yl)-1,2,4-triazin-3-yl)amino)ethyl)benzonitrile] | ≤ 5000 | ≤ 1000
16 | CS(=O)(=O)c1cncc(-c2cnc(N[C@@H]3CCc4ccccc43)cn2)c1 [Example 36, (R)-N-(2,3-dihydro-1H-inden-1-yl)-5-(5-(methylsulfonyl)pyridin-3-yl)pyrazin-2-amine] | ≤ 5000 | ≤ 200
17 | C[C@@H](Nc1cnc(-c2cncc(C(O)C(F)F)c2)cn1)c1ccc(F)cc1 (single isomer, unassigned) [Example 54a] | ≤ 200 | ≤ 1000

More lines, now with the values ahead:

Row | EC50 (rat GPR55) [nM] | EC50 (human GPR55) [nM] | SMILES
18 | ≤ 5000 | ≤ 50 | Cc1cncc(-c2ccc(N[C@H](C)c3ccc(F)c(F)c3)nc2)c1 [Example 2, (R)-N-(1-(3,4-difluorophenyl)ethyl)-5′-methyl-[3,3′-bipyridin]-6-amine]
19 | ≤ 5000 | ≤ 1000 | C[C@@H](Nc1ccc(-c2ccc3[nH]c(=O)oc3c2)cn1)c1ccc(F)cc1 [Example 61, (R)-6-(6-((1-(4-fluorophenyl)ethyl)amino)pyridin-3-yl)benzo[d]oxazol-2(3H)-one]
20 | ≤ 200 | ≤ 50 | CC(O)c1cncc(-c2ccc(N[C@H](C)c3ccc(F)cc3)nc2)c1 (single isomer, unassigned) [Example 16b]
21 | ≤ 50 | ≤ 1000 | CC(O)c1cncc(-c2ccc(N[C@H](C)c3ccc(F)cc3)nc2)c1 (single isomer, unassigned) [Example 16a]
22 | ≤ 1000 | ≤ 50 | CCc1cncc(-c2cnc(N[C@H](C)c3ccc(F)cc3)cn2)c1 [Example 17, (R)-5-(5-ethylpyridin-3-yl)-N-(1-(4-fluorophenyl)ethyl)pyrazin-2-amine]
23 | ≤ 5000 | ≤ 1000 | CCc1cncc(-c2ccc(N[C@H](C)c3ccc(OC)cc3)nc2)c1 [Example 47, (R)-5′-ethyl-N-(1-(4-methoxyphenyl)ethyl)-[3,3′-bipyridin]-6-amine]
24 | ≤ 5000 | ≤ 1000 | C[C@@H](Nc1cnc(-c2cncc([S+](C)[O-])c2)cn1)c1ccc(F)cc1 (stereo partly drawn) [Example 23, N-((R)-1-(4-fluorophenyl)ethyl)-5-(5-(methylsulfinyl)pyridin-3-yl)pyrazin-2-amine]
25 | ≤ 1000 | ≤ 1000 | Cc1cnc(C)c(-c2ccc(N[C@H](C)c3ccc(F)cc3)nc2)c1 [Example 10, (R)-N-(1-(4-fluorophenyl)ethyl)-2′,5′-dimethyl-[3,3′-bipyridin]-6-amine]
26 | ≤ 50 | ≤ 200 | C[C@@H](Nc1cnc(-c2cncc(C(O)C(F)(F)F)c2)cn1)c1ccc(F)cc1 (mixture of isomers) [Example 32, 2,2,2-trifluoro-1-(5-(5-(((R)-1-(4-fluorophenyl)ethyl)amino)pyrazin-2-yl)pyridin-3-yl)ethan-1-ol]
27 | ≤ 50 | ≤ 200 | C[C@@H](Nc1ccc(-c2cncc(Cl)c2)cn1)c1ccc(F)cc1 [Example 9, (R)-5′-chloro-N-(1-(4-fluorophenyl)ethyl)-[3,3′-bipyridin]-6-amine]
28 | ≤ 1000 | ≤ 50 | CCc1cncc(-c2ccc(N[C@H](C)c3ccccc3)nc2)c1 [Example 49, (R)-5′-ethyl-N-(1-phenylethyl)-[3,3′-bipyridin]-6-amine]
29 | ≤ 5000 | ≤ 1000 | C[C@@H](Nc1ccc(-c2cncc(N(C)C)c2)cn1)c1ccc(F)cc1 [Example 12, (R)-N6′-(1-(4-fluorophenyl)ethyl)-N5,N5-dimethyl-[3,3′-bipyridine]-5,6′-diamine]
30 | ≤ 5000 | ≤ 200 | CC[S+]([O-])c1cncc(-c2ccc(N[C@H](C)c3ccc(F)cc3)nc2)c1 (stereo partly drawn) [Example 13, 5′-(ethylsulfinyl)-N-((R)-1-(4-fluorophenyl)ethyl)-[3,3′-bipyridin]-6-amine]
31 | ≤ 200 | ≤ 200 | C[C@@H](Nc1ccc(-c2cncc(S(C)(=O)=O)c2)cn1)c1ccc(F)cc1 [Example 7, (R)-N-(1-(4-fluorophenyl)ethyl)-5′-(methylsulfonyl)-[3,3′-bipyridin]-6-amine]
32 | ≤ 5000 | ≤ 1000 | CC(Nc1cc(F)c(-c2cncc(S(C)(=O)=O)c2)cn1)c1ccc(F)cc1 (single isomer, unassigned) [Example 29b, 4-fluoro-N-(1-(4-fluorophenyl)ethyl)-5′-(methylsulfonyl)-[3,3′-bipyridin]-6-amine]
33 | ≤ 5000 | ≤ 200 | CC[S+]([O-])c1cncc(-c2cnc(N[C@H](C)c3ccc(F)cc3)cn2)c1 (stereo partly drawn) [Example 24, 5-(5-(ethylsulfinyl)pyridin-3-yl)-N-((R)-1-(4-fluorophenyl)ethyl)pyrazin-2-amine]
